Data from US11051515B2, “3-acyl-benzamides and their use as herbicides” (Bayer Aktiengesellschaft, priority 2017, dated 2021).

Tests used:
SETVI [1] = test: Pre-emergence action against SETVI; format: in vivo, Setaria viridis; conditions: pre-emergence, dosage 320 g/ha, scored visually after 3 weeks vs untreated controls
Procedure, shortened: (§1)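 Seeds sown in sandy loam in wood-fiber pots and covered with soil. Greenhouse growth; visual damage scored after 3 weeks versus untreated controls (100% = dead, 0% = like control).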

AVEFA [2] = test: Post-emergence action against AVEFA; format: in vivo, Avena fatua; conditions: post-emergence, dosage 80 g/ha, visual assessment about 3 weeks after treatment vs untreated controls
Procedure, shortened: (§2)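 Weeds grown in sandy loam in greenhouse, treated at one-leaf stage (2–3 weeks after sowing) with WP or EC formulations sprayed as aqueous suspension/emulsion at 600 to […] water with 0.2% wetting agent. Visual rating after about 3 weeks versus untreated controls, as % herbicidal action (100% = plants dead, 0% = like control).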

VERPE [3] = test: Pre-emergence action against VERPE; format: in vivo, Veronica persica; conditions: Dosage 320 g/ha, pre-emergence
Procedure, shortened: as §1

ECHCG [4] = test: Post-emergence action against ECHCG; format: in vivo, Echinochloa crus-galli; conditions: post-emergence, dosage 80 g/ha, visual assessment about 3 weeks after treatment vs untreated controls
Procedure, shortened: as §2

VIOTR [5] = test: Pre-emergence action against VIOTR; format: in vivo, Viola tricolor; conditions: Dosage 320 g/ha, pre-emergence
Procedure, shortened: as §1

ALOMY [6] = test: Post-emergence action against ALOMY; format: in vivo, Alopecurus myosuroides; conditions: Dosage 80 g/ha, post-emergence
Procedure, shortened: as §2

VERPE [7] = test: Post-emergence action against VERPE; format: in vivo, Veronica persica; conditions: dosage 80 g/ha
Procedure, shortened: as §2

MATIN [8] = test: Post-emergence action against MATIN; format: in vivo, Matricaria inodora; conditions: post-emergence, dosage 80 g/ha, visual assessment about 3 weeks after treatment vs untreated controls
Procedure, shortened: as §2

AMARE [9] = test: Pre-emergence action against AMARE; format: in vivo, Amaranthus retroflexus; conditions: pre-emergence, dosage 320 g/ha, scored visually after 3 weeks vs untreated controls
Procedure, shortened: as §1

STEME [10] = test: Post-emergence action against STEME; format: in vivo, Stellaria media; conditions: post-emergence, dosage 80 g/ha
Procedure, shortened: as §2

ABUTH [11] = test: Pre-emergence action against ABUTH; format: in vivo, Abutilon theophrasti; conditions: pre-emergence, dosage 320 g/ha, scored visually after 3 weeks vs untreated controls
Procedure, shortened: as §1

PHBPU [12] = test: Pre-emergence action against PHBPU; format: in vivo, Pharbitis purpurea; conditions: Dosage 320 g/ha, pre-emergence
Procedure, shortened: as §1

VIOTR [13] = test: Post-emergence action against VIOTR; format: in vivo, Viola tricolor; conditions: post-emergence, dosage 80 g/ha
Procedure, shortened: as §2

MATIN [14] = test: Pre-emergence action against MATIN; format: in vivo, Matricaria inodora; conditions: Dosage 320 g/ha, pre-emergence
Procedure, shortened: as §1

POLCO [15] = test: Post-emergence action against POLCO; format: in vivo, Polygonum convolvulus; conditions: post-emergence, dosage 80 g/ha
Procedure, shortened: as §2

ABUTH [16] = test: Post-emergence action against ABUTH; format: in vivo, Abutilon theophrasti; conditions: post-emergence, dosage 80 g/ha, visual assessment about 3 weeks after treatment vs untreated controls
Procedure, shortened: as §2

AVEFA [17] = test: Pre-emergence action against AVEFA; format: in vivo, Avena fatua; conditions: dosage 320 g/ha, scored visually after 3 weeks vs untreated controls
Procedure, shortened: as §1

LOLRI = test: Pre-emergence action against LOLRI; format: in vivo, Lolium rigidum; conditions: dosage 320 g/ha, scored visually after 3 weeks vs untreated controls
Description: (§3) Seeds of monocotyledonous and dicotyledonous weed plants and crop plants are laid out in sandy loam soil in wood-fiber pots and covered with soil. The compounds of the invention, formulated in the form of wettable powders (WP) or as emulsion concentrates (EC), are then applied to the surface of the covering soil in the form of an aqueous suspension or emulsion at a water application rate equating to […], with addition of 0.2% wetting agent. After the treatment, the pots are placed in a greenhouse and kept under good growth conditions for the trial plants. The damage to the test plants is scored visually after a test period of 3 weeks by comparison with untreated controls (herbicidal activity in percent (%): 100% activity=the plants have died, 0% activity=like control plants).

ECHCG [18] = test: Pre-emergence action against ECHCG; format: in vivo, Echinochloa crus-galli; conditions: pre-emergence, dosage 320 g/ha, scored visually after 3 weeks vs untreated controls
Procedure, shortened: as §1

ALOMY [19] = test: Pre-emergence action against ALOMY; format: in vivo, Alopecurus myosuroides; conditions: dosage 320 g/ha; pre-emergence; scored visually after 3 weeks vs untreated controls; 100% = plants have died, 0% = like control plants
Procedure, shortened: as §1

CYPES [20] = test: Post-emergence action against CYPES; format: in vivo, Cyperus esculentus; conditions: post-emergence, dosage 80 g/ha, visual assessment about 3 weeks after treatment vs untreated controls
Procedure, shortened: as §2

PHBPU [21] = test: Post-emergence action against PHBPU; format: in vivo, Pharbitis purpurea; conditions: post-emergence, dosage 80 g/ha
Procedure, shortened: as §2

STEME [22] = test: Pre-emergence action against STEME; format: in vivo, Stellaria media; conditions: Dosage 320 g/ha, pre-emergence
Procedure, shortened: as §1

AMARE [23] = test: Post-emergence action against AMARE; format: in vivo, Amaranthus retroflexus; conditions: post-emergence, dosage 80 g/ha, visual assessment about 3 weeks after treatment vs untreated controls
Procedure, shortened: as §2

CYPES [24] = test: Pre-emergence action against CYPES; format: in vivo, Cyperus esculentus; conditions: pre-emergence, dosage 320 g/ha, scored visually after 3 weeks vs untreated controls
Procedure, shortened: as §1

SETVI [25] = test: Post-emergence action against SETVI; format: in vivo, Setaria viridis; conditions: post-emergence, dosage 80 g/ha, visual assessment about 3 weeks after treatment vs untreated controls
Procedure, shortened: as §2

HORMU = test: Pre-emergence action against HORMU; format: in vivo, Hordeum murinum; conditions: Dosage 320 g/ha
Description: as §3

POLCO [26] = test: Pre-emergence action against POLCO; format: in vivo, Polygonum convolvulus; conditions: Dosage 320 g/ha, pre-emergence
Procedure, shortened: as §1

Row | SMILES | SETVI (Table B8, pre-emergence herbicidal activity) (SETVI [1]) [%] | Pre-emergence action against VERPE (VERPE [3]) [%] | Post-emergence action against ECHCG (herbicidal action in percent) (ECHCG [4]) [%] | Pre-emergence action against VIOTR (VIOTR [5]) [%] | Post-emergence action against VERPE (VERPE [7]) | Post-emergence action against MATIN (herbicidal action in percent) (MATIN [8]) [%] | Pre-emergence action against AMARE (herbicidal activity) (AMARE [9]) [%] | Post-emergence action against STEME (STEME [10]) | Pre-emergence action against ABUTH (herbicidal activity) (ABUTH [11]) [%] | Pre-emergence action against PHBPU (PHBPU [12]) [%] | Post-emergence action against VIOTR (VIOTR [13]) | Pre-emergence action against MATIN (MATIN [14]) [%] | Post-emergence action against POLCO (POLCO [15]) | Post-emergence action against ABUTH (herbicidal action in percent) (ABUTH [16]) [%] | Pre-emergence action against AVEFA (herbicidal activity) (AVEFA [17]) [%] | Pre-emergence action against LOLRI (herbicidal activity) (LOLRI) [%] | Pre-emergence action against ECHCG (herbicidal activity) (ECHCG [18]) [%] | Pre-emergence action against ALOMY (herbicidal activity in percent) (ALOMY [19]) [%] | Post-emergence action against PHBPU (PHBPU [21]) | Pre-emergence action against STEME (STEME [22]) [%] | further results
1 | CCn1nnnc1NC(=O)c1ccc(C(F)(F)F)c(C(=O)C(C)C)c1Cl [2-140] | 100 | 100 | 100 | 100 | 80 | 90 | 100 | 100 | 100 | 100 | 100 | 100 | 80 | 100 | 80 | 90 | 100 | 90 | 90 | 100 | Post-emergence action against AVEFA (herbicidal action in percent) (AVEFA [2]): 80%; Post-emergence action against ALOMY (ALOMY [6]): 80%; Post-emergence action against CYPES (herbicidal action in percent) (CYPES [20]): 80%
2 | CCn1nnnc1NC(=O)c1ccc(C(F)(F)F)c(C(=O)COC)c1Cl [2-144] | 100 | 100 | 100 | 100 | 90 | 90 | 100 | 100 | 100 | 100 | 100 | 100 | – | 90 | 100 | 100 | 100 | 100 | 100 | 100 | Post-emergence action against AMARE (herbicidal action in percent) (AMARE [23]): 100%; Pre-emergence action against CYPES (herbicidal activity) (CYPES [24]): 100%; Post-emergence action against SETVI (herbicidal action in percent) (SETVI [25]): 100%
3 | CCn1nnnc1NC(=O)c1ccc(C(F)F)c(C(C)=O)c1SC [2-65] | 100 | 100 | 80 | 100 | 80 | 100 | 100 | 100 | 100 | 100 | 100 | 90 | 100 | 100 | 100 | – | 100 | 100 | 90 | 100 | Post-emergence action against AMARE (herbicidal action in percent) (AMARE [23]): 100%; Pre-emergence action against CYPES (herbicidal activity) (CYPES [24]): 90%; Pre-emergence action against HORMU (HORMU): 80%; Post-emergence action against SETVI (herbicidal action in percent) (SETVI [25]): 100%; Pre-emergence action against POLCO (POLCO [26]): 90%
